Reference: ChEMBL document CHEMBL5360522, “Design, Synthesis, and Biological Evaluation of New 1H-Imidazole-2-Carboxylic Acid Derivatives as Metallo-β-Lactamase Inhibitors” (Bioorg Med Chem, 2022)

Legend:
[1] = system: Escherichia coli; experiment: Antibacterial activity against Escherichia coli C1541 expressing VIM-2 assessed as meropenem MIC at 10 ug/ml incubated for 16 to 18 hrs in presence of meropenem by two-fold serial dilution method; format: functional; details: dose 10 µg/ml, time 16-18 hrs
[2] = Inhibition of Metallo-beta-lactamase VIM-5 (unknown origin) using FC5 as fluorescence substrate preincubated for 10 mins followed by substrate addition by microplate reader analysis
[3] = Inhibition of Metallo-beta-lactamase IMP-1 (unknown origin) using FC5 as fluorescence substrate preincubated for 10 mins followed by substrate addition by microplate reader analysis
[4] = Inhibition of Metallo-beta-lactamase VIM-1 (unknown origin) using FC5 as fluorescence substrate preincubated for 10 mins followed by substrate addition by microplate reader analysis
[5] = system: Escherichia coli; experiment: Antibacterial activity against Escherichia coli C1542 expressing VIM-2 assessed as meropenem MIC at 10 ug/ml incubated for 16 to 18 hrs in presence of meropenem by two-fold serial dilution method; format: functional; details: dose 10 µg/ml, time 16-18 hrs
[6] = system: Escherichia coli; experiment: Antibacterial activity against Escherichia coli C1541 expressing IMP-1 assessed as meropenem MIC at 10 ug/ml incubated for 16 to 18 hrs in presence of meropenem by two-fold serial dilution method; format: functional; details: dose 10 µg/ml, time 16-18 hrs
[7] = Inhibition of N-terminal His-6 tagged VIM-2 (27 to 266 residues) (unknown origin) expressed in Escherichia coli Transetta (DE3) using FC5 as fluorescence substrate preincubated for 10 mins followed by substrate addition by microplate reader analysis; set-up: species or system Bacteria
[8] = target: Metallo-beta-lactamase type 2 (Bacteria, UniProt C7C422); experiment: Inhibition of NDM-1 (1 to 270 residues) (unknown origin) expressed in Escherichia coli Transetta (DE3) using FC5 as fluorescence substrate preincubated for 10 mins followed by substrate addition by microplate reader analysis
Metallo-beta-lactamase type 2, sequence (C7C422 whole entry, the tested form may be a part): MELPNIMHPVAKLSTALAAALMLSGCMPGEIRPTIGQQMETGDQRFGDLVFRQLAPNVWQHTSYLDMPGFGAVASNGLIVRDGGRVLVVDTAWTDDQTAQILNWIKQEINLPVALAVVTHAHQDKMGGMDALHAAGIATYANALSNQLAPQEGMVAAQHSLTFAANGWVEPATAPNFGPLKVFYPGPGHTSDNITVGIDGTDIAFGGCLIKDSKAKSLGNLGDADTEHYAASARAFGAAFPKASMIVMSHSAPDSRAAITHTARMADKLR

Compound | MIC [1] [µg/mL] | IC50 [2] [nM] | IC50 [3] [µM] | IC50 [4] [µM] | MIC [5] [µg/mL] | MIC [6] [µg/mL] | IC50 [7] [nM] | IC50 [8] [µM]
O=C(O)c1nccn1Cc1ccccc1 | 16 | 1550 | 32.1 | 4.14 | 16 | 8 | 480 | 63.5
O=C(O)c1nccn1Cc1ccncc1 | ≤ 0.25 | 5780 | > 300 | 29.5 | ≤ 0.25 | 8 | 560 | > 300
O=C(O)c1nc2ccccc2n1Cc1ccccc1 |  |  | > 100 | > 100 |  |  | > 300000 | > 100
O=C(O)c1nccn1CCc1cccc(F)c1 |  | 660 | 441 | 3.67 |  |  | 110 | > 100
O=C(O)c1nccn1CCc1cccc2ccccc12 | ≤ 0.25 | 1070 | 50.9 | 4.13 | ≤ 0.25 | 8 | 70 | 74.8
O=C(O)c1ncsc1Cc1ccccc1 |  | 4370 | 7.8 | 6.31 |  |  | 2060 | 43.7
O=C(O)c1nccn1CCc1ccc(-c2ccc3ccccc3c2)cc1 |  | 220 | 202 | 96.7 |  |  | 4970 | > 100
O=C(O)c1ncsc1CCc1ccccc1F |  | 1170 | 121 | 1.82 |  |  | 35 | > 100
O=C(O)c1nccn1CCc1ccc2ccccc2c1 | 0.5 | 140 | 46.8 | 7.06 | ≤ 0.25 | 8 | 23 | > 100
CCC(c1ccccc1)n1ccnc1C(=O)O (centres undefined) |  | 2590 | > 300 | 30.8 |  |  | 2730 | > 300
Cc1ncsc1CCn1ccnc1C(=O)O |  | 1990 | > 100 | 31.6 |  |  | 200 | > 100
O=C(O)c1ncsc1CCc1ccc(Br)cc1 |  | 440 | > 100 | 8.37 |  |  | 100 | > 100
O=C(O)c1nccn1CCc1ccc(-c2cccs2)cc1 | ≤ 0.25 | 18 | 64 | 3.98 | ≤ 0.25 | 8 | 18 | 126
O=C(O)c1nccn1CCc1ccc(-c2ccncc2)cc1 |  | 170 | 10.2 | 2.17 |  |  | 110 | 54.6
Cc1ccc(CCn2ccnc2C(=O)O)cc1 |  | 6280 | > 100 | 15.7 |  |  | 480 | > 100
O=C(O)c1nccn1CCc1cccs1 |  | 640 | 7.97 | 1.07 |  |  | 120 | > 100
COc1cccc(CCc2scnc2C(=O)O)c1 |  | 3230 | 61.6 | 4.77 |  |  | 28 | 29.9
O=C(O)c1ncsc1CCc1ccc(C(F)(F)F)cc1 |  | 1550 | 87.8 | 14.5 |  |  | 210 | > 100
O=C(O)c1nccn1CCc1ccc(Cl)cc1 |  | 440 | > 100 | 8.37 |  |  | 100 | > 100
COc1ccc(CCn2ccnc2C(=O)O)cc1OC |  | 15100 | 326 | 76.3 |  |  | 310 | > 100
O=C(O)c1ncsc1CCc1cccc(Br)c1 |  | 1450 | > 100 | 1.64 |  |  | 24 | > 100
O=C(O)c1ncsc1CCc1ccc(F)cc1 |  | 410 | 56.8 | 4.09 |  |  | 47 | > 100
O=C(O)c1nccn1CCc1ccc(-c2cccc3ccccc23)cc1 |  | 89 | ~67 | > 100 |  |  | 1460 | ~200
COc1cccc(CCn2ccnc2C(=O)O)c1 |  | 10700 | 70.2 | 9.39 |  |  | 380 | > 100
O=C(O)c1nccn1CCc1ccc([N+](=O)[O-])cc1 | ≤ 0.25 | 150 | > 100 | 4.84 | ≤ 0.25 | 8 | 40 | > 100

Compound | MIC [1] [µg/mL] | IC50 [2] [nM] | IC50 [3] [µM] | IC50 [4] [µM] | MIC [5] [µg/mL] | MIC [6] [µg/mL] | IC50 [7] [nM] | IC50 [8] [µM]
O=C(O)c1ncsc1CCc1cccc(C(F)(F)F)c1 |  | 2690 | 112 | 2.08 |  |  | 560 | > 100
COc1ccc(CCn2ccnc2C(=O)O)cc1 |  | 1640 | 4.48 | 33.7 |  |  | 350 | > 100
O=C(O)c1nccn1CCCc1ccccc1 |  | 830 | 10.8 | 0.63 |  |  | 630 | > 100
O=C(O)c1nccn1CCc1cccc(Cl)c1 |  | 108000 | > 100 | 0.96 |  |  | 90 | > 100
O=C(O)c1ncoc1Cc1ccccc1 |  | 11800 | > 100 | > 100 |  |  | 41700 | > 100
O=C(O)c1nncn1Cc1ccccc1 |  |  |  |  |  |  | > 100000 | > 100
O=C(O)c1nccn1CCc1ccccn1 |  | 710 | > 100 | 3.83 |  |  | 200 | 18.9
O=C(O)c1nccn1CCNS(=O)(=O)c1ccccc1 |  | 62700 | > 100 | > 100 |  |  | 5950 | > 100
O=C(O)c1ncsc1CCc1ccc(C(c2ccccc2)(c2ccccc2)c2ccccc2)cc1 |  | 650 | 46.8 | 9.56 |  |  | 230 | > 100
Nc1ccc(CCn2ccnc2C(=O)O)cc1 |  | 450 | 4.9 | 3.73 |  |  | 330 | > 100
O=C(O)c1ncsc1CCc1ccccc1 |  | 430 | 2.92 | 0.42 |  |  | 220 | 82.4
Cc1c(C(=O)O)ncn1Cc1ccccc1 |  | > 100000 | > 100 | > 100 |  |  | > 100000 | > 100
O=C(O)c1ncn(Cc2ccccc2)n1 |  |  |  |  |  |  | > 100000 | > 100
O=C(O)c1nccn1CCc1ccc2c(c1)CCO2 |  | 96200 | > 100 | 190 |  |  | 480 | > 100
CC(Cn1ccnc1C(=O)O)c1ccccc1 (centres undefined) |  | 1080 | 261 | 3.29 |  |  | 190 | 203
O=C(O)c1nccn1CCc1ccc(Br)cc1 |  | 100 | > 100 | 3.5 |  |  | 60 | > 100
O=C(O)c1nccn1CCOc1ccccc1 |  | 520 | > 100 | 14.4 |  |  | 5490 | > 100
O=C(O)c1nccn1CCS(=O)(=O)c1ccccc1 |  | 4420 | > 100 | 112 |  |  | 2870 | > 100
O=C(O)c1nccn1CCc1ccccc1 |  | 1590 | 483 | 2.32 |  |  | 110 | 301
O=C(O)c1nccn1C(C(=O)O)c1ccccc1 (centres undefined) | 16 | 9240 | 1.59 | > 300 | 16 | 8 | 7480 | > 300
CC(c1ccccc1)n1ccnc1C(=O)O (centres undefined) |  | 3810 | 4.12 | 8.18 |  |  | 760 | > 200
O=C(O)c1nccn1CCc1ccc(-c2ccccc2)cc1 | 0.5 | 180 | 21.4 | 2.37 | ≤ 0.25 | 8 | 60 | 25.4
O=C(Cn1ccnc1C(=O)O)c1ccccc1 |  | 1850 | > 100 | 5.02 |  |  | 630 | > 300
O=C(O)c1ncnn1Cc1ccccc1 |  |  |  |  |  |  | > 100000 | > 100
O=C(O)c1nccn1CCc1ccc(F)cc1 |  | 1930 | > 100 | 3.11 |  |  | 140 | > 100
